In paper PMC7914897, “Cytotoxic Potential of a-Azepano- and 3-Amino-3,4-SeCo-Triterpenoids” (International Journal of Molecular Sciences, 2021):

Key:
[1] = system: A2780 (ovarian carcinoma); assay: SRB cytotoxicity assay, 72 h; assay type: cell-based, human; conditions: Homo sapiens; A2780, 72 h, cut-off 30 µM; read-out: EC50
In short: (§1)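 Absorbance at 570 nm of SRB-stained cells gives % survival vs untreated controls, from which EC50 is determined. Treatment: 0–30 µM serial dilutions, 72 h, beginning 24 h post-seeding; DMSO ≤0.5%. TCA (10%) fixation, acetic acid wash.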

[2] = system: A375 (malignant melanoma); assay: SRB cytotoxicity assay, 72 h; assay type: cell-based, human; conditions: Homo sapiens, A-375, 72 h, A375, 72 h, cut-off 30 µM; read-out: EC50
In short: as §1

[3] = system: FaDu (hypopharyngeal carcinoma); assay: SRB cytotoxicity assay, 72 h; assay type: cell-based, human; conditions: Homo sapiens, cut-off 30 µM, read-out: EC50
In short: as §1

[4] = system: HT29 (colorectal carcinoma); assay: SRB cytotoxicity assay, 72 h; assay type: cell-based, human; conditions: Homo sapiens, HT-29; HT29, 72 h, cut-off 30 µM; read-out: EC50
In short: as §1

MCF-7 (breast carcinoma) = assay: SRB cytotoxicity assay, 72 h; assay type: cell-based, human; conditions: Homo sapiens, MCF7; MCF-7, 72 h, cut-off 30 µM; read-out: EC50
In short: as §1

[5] = system: NIH 3T3 (non-malignant mouse fibroblasts); assay: SRB cytotoxicity assay, 72 h; assay type: cell-based; conditions: Mus musculus, NIH3T3; NIH 3T3, 72 h, cut-off 30 µM; read-out: EC50
In short: as §1

Leukemia subpanel = assay: cells; conditions: Homo sapiens
[6] = system: MDA-MB-468 (Breast cancer); assay: cells; conditions: Homo sapiens
Colon Cancer subpanel = assay: NCI-60 screen, subpanel; conditions: Homo sapiens
CCRF-CEM (Leukemia) = assay: NCI-60 screen (SRB, 48 h); conditions: Homo sapiens
MOLT-4 (Leukemia) = assay: NCI-60 screen (SRB, 48 h); conditions: Homo sapiens
[7] = system: A549/ATCC (NSC lung cancer); assay: NCI-60 screen (SRB, 48 h); conditions: Homo sapiens
HOP-92 (NSC lung cancer) = assay: NCI-60 screen (SRB, 48 h); conditions: Homo sapiens
[8] = system: NCI-H23 (NSC lung cancer); assay: NCI-60 screen (SRB, 48 h); conditions: Homo sapiens
HCT-116 (Colon cancer) = assay: NCI-60 screen (SRB, 48 h); conditions: Homo sapiens
HCT-15 (Colon cancer) = assay: NCI-60 screen (SRB, 48 h); conditions: Homo sapiens
SF-295 (CNS cancer) = assay: NCI-60 screen (SRB, 48 h); conditions: Homo sapiens
SNB-19 (CNS cancer) = assay: NCI-60 screen (SRB, 48 h); conditions: Homo sapiens
U251 (CNS cancer) = assay: NCI-60 screen (SRB, 48 h)
IGROV1 (Ovarian cancer) = assay: NCI-60 screen (SRB, 48 h); conditions: Homo sapiens
OVCAR-5 (Ovarian cancer) = assay: NCI-60 screen (SRB, 48 h); conditions: Homo sapiens
CAKI-1 (Renal cancer) = assay: NCI-60 screen (SRB, 48 h); conditions: Homo sapiens
SN12C (Renal cancer) = assay: NCI-60 screen (SRB, 48 h); conditions: Homo sapiens
TK-10 (Renal cancer) = assay: NCI-60 screen (SRB, 48 h); conditions: Homo sapiens
[9] = system: MDA-MB-31/ATCC (Breast cancer); assay: NCI-60 screen (SRB, 48 h); conditions: Homo sapiens

C[C@H]1[C@H](C)CC[C@]2(CO)CC[C@]3(C)C(=CC[C@@H]4[C@@]5(C)CCCNC(C)(C)[C@@H]5CC[C@]43C)[C@H]12 [Compound 4, azepanouvaol]
EC50 [1]: 2.63 ± 0.1 µM | EC50 [2]: 2.4 ± 0.2 µM | EC50 [3]: 1.69 ± 0.4 µM | EC50 [4]: 1.71 ± 0.3 µM | EC50 (MCF-7 (breast carcinoma)): 2.3 ± 0.2 µM | EC50 [5]: 2.77 ± 0.4 µM | IC (TGI) (Leukemia subpanel; 48 h, read-out: TGI MG_MID): 3.28 µM | GI50 (Leukemia subpanel; read-out: GI50 MG_MID): 1.32 µM | CC50 (Leukemia subpanel; read-out: LC50 MG_MID): 8.02 µM | GI50 ([6]; MDA-MB-468): 1.7 µM | IC (TGI) ([6]; MDA-MB-468, 48 h, read-out: TGI): 3.44 µM | CC50 ([6]; MDA-MB-468, read-out: LC50): 6.98 µM | IC (TGI) (Colon Cancer subpanel; 48 h, read-out: TGI MG_MID): 3.07 µM | GI50 (Colon Cancer subpanel; read-out: GI50 MG_MID): 1.52 µM | CC50 (Colon Cancer subpanel; read-out: LC50 MG_MID): 6.16 µM | GI50 (CCRF-CEM (Leukemia)): 1.74 µM | IC (TGI) (CCRF-CEM (Leukemia); 48 h, read-out: TGI): 3.93 µM | CC50 (CCRF-CEM (Leukemia); read-out: LC50): 8.88 µM | GI50 (MOLT-4 (Leukemia); MOLT-4): 1.37 µM | IC (TGI) (MOLT-4 (Leukemia); MOLT-4, 48 h, read-out: TGI): 3.15 µM | CC50 (MOLT-4 (Leukemia); MOLT-4, read-out: LC50): 7.25 µM | GI50 ([7]; A549): 1.74 µM | IC (TGI) ([7]; A549, 48 h, read-out: TGI): 3.28 µM | CC50 ([7]; A549, read-out: LC50): 6.16 µM | GI50 (HOP-92 (NSC lung cancer); HOP-92): 1.52 µM | IC (TGI) (HOP-92 (NSC lung cancer); HOP-92, 48 h, read-out: TGI): 3.19 µM | CC50 (HOP-92 (NSC lung cancer); HOP-92, read-out: LC50): 6.67 µM | GI50 ([8]; NCI-H23): 1.65 µM | IC (TGI) ([8]; NCI-H23, 48 h, read-out: TGI): 3.26 µM | CC50 ([8]; NCI-H23, read-out: LC50): 6.47 µM | GI50 (HCT-116 (Colon cancer); HCT-116): 1.49 µM | activity at 10 µM (HCT-116 (Colon cancer); HCT-116, 48 h, read-out: Growth % of the Most Sensitive Cell Lines): -94.7% | IC (TGI) (HCT-116 (Colon cancer); HCT-116, 48 h, read-out: TGI): 2.81 µM | CC50 (HCT-116 (Colon cancer); HCT-116, read-out: LC50): 5.31 µM | GI50 (HCT-15 (Colon cancer); HCT-15): 1.39 µM | IC (TGI) (HCT-15 (Colon cancer); HCT-15, 48 h, read-out: TGI): 2.75 µM | CC50 (HCT-15 (Colon cancer); HCT-15, read-out: LC50): 5.52 µM | GI50 (SF-295 (CNS cancer); SF-295): 1.64 µM | IC (TGI) (SF-295 (CNS cancer); SF-295, 48 h, read-out: TGI): 3.06 µM | CC50 (SF-295 (CNS cancer); SF-295, read-out: LC50): 5.72 µM | GI50 (SNB-19 (CNS cancer); SNB-19): 1.86 µM | IC (TGI) (SNB-19 (CNS cancer); SNB-19, 48 h, read-out: TGI): 3.43 µM | CC50 (SNB-19 (CNS cancer); SNB-19, read-out: LC50): 6.31 µM | GI50 (U251 (CNS cancer); Homo sapiens, U-251): 1.67 µM | IC (TGI) (U251 (CNS cancer); Homo sapiens, U-251, 48 h, read-out: TGI): 3.15 µM | CC50 (U251 (CNS cancer); Homo sapiens, U-251, read-out: LC50): 5.94 µM | Growth % of the Most Sensitive Cell Lines (U251 (CNS cancer); U251, 1 dose 10 µM): −83.30% | GI50 (IGROV1 (Ovarian cancer); IGROV-1): 1.85 µM | IC (TGI) (IGROV1 (Ovarian cancer); IGROV-1, 48 h, read-out: TGI): 3.72 µM | CC50 (IGROV1 (Ovarian cancer); IGROV-1, read-out: LC50): 7.45 µM | GI50 (OVCAR-5 (Ovarian cancer); OVCAR-5): 1.69 µM | IC (TGI) (OVCAR-5 (Ovarian cancer); OVCAR-5, 48 h, read-out: TGI): 3.18 µM | CC50 (OVCAR-5 (Ovarian cancer); OVCAR-5, read-out: LC50): 5.99 µM | GI50 (CAKI-1 (Renal cancer); CAKI-1): 1.62 µM | IC (TGI) (CAKI-1 (Renal cancer); CAKI-1, 48 h, read-out: TGI): 3.23 µM | CC50 (CAKI-1 (Renal cancer); CAKI-1, read-out: LC50): 6.43 µM | GI50 (SN12C (Renal cancer)): 1.64 µM | IC (TGI) (SN12C (Renal cancer); 48 h, read-out: TGI): 3.11 µM | CC50 (SN12C (Renal cancer); read-out: LC50): 5.87 µM | GI50 (TK-10 (Renal cancer); TK-10): 1.84 µM | IC (TGI) (TK-10 (Renal cancer); TK-10, 48 h, read-out: TGI): 3.32 µM | CC50 (TK-10 (Renal cancer); TK-10, read-out: LC50): 5.97 µM | GI50 [9]: 1.88 µM | IC (TGI) ([9]; 48 h, read-out: TGI): 3.48 µM | CC50 ([9]; read-out: LC50): 6.43 µM
